Results reported in ChEMBL document CHEMBL5375999, “Discovery of a Dual Tubulin and Neuropilin-1 (NRP1) Inhibitor with Potent In Vivo Anti-Tumor Activity via Pharmacophore-based Docking Screening, Structure Optimization, and Biological Evaluation” (J Med Chem, 2023).
Active and inactive are the calls of the source. No cut-off for these calls is given here.

Experiments:
[1] = target: Vascular endothelial growth factor A, long form (Homo sapiens, UniProt P15692); experiment: Inhibition of VEGF (unknown origin)
[2] = target: Vascular endothelial growth factor receptor 1 (Homo sapiens, UniProt P17948); experiment: Inhibition of VEGFR1 (unknown origin)
Chain of Vascular endothelial growth factor receptor 1 (P17948 whole entry): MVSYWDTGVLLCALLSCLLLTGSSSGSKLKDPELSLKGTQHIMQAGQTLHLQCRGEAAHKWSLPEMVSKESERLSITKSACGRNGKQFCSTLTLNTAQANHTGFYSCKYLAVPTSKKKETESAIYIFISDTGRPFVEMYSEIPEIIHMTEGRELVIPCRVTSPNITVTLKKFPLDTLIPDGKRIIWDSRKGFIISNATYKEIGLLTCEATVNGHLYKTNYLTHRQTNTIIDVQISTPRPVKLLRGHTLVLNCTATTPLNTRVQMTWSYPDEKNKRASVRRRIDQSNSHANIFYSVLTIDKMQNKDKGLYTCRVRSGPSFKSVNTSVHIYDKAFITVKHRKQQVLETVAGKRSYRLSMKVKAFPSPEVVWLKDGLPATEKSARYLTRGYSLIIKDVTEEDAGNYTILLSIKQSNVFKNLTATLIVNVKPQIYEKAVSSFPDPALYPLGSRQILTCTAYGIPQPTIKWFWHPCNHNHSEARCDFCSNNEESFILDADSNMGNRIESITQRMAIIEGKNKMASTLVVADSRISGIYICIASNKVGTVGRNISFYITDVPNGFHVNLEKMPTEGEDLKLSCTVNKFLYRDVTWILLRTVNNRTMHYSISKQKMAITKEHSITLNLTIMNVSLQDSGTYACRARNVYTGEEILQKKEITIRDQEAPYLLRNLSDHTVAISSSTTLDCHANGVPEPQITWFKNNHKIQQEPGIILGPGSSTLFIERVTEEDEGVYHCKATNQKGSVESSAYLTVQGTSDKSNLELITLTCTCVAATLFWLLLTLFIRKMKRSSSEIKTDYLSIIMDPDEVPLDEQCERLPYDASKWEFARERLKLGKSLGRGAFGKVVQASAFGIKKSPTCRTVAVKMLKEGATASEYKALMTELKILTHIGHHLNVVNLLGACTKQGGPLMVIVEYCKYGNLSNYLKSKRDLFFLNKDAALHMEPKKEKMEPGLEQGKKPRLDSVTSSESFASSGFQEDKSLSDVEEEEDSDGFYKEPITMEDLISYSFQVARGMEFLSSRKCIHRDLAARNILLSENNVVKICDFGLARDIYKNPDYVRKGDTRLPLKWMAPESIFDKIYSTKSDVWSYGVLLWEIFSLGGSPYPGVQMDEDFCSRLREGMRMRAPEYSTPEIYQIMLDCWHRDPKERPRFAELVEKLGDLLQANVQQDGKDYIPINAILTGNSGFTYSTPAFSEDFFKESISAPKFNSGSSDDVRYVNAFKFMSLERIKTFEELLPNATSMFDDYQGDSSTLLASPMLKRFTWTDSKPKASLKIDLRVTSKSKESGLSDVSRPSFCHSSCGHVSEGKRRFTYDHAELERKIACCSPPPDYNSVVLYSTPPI

[3] = target: Atypical kinase COQ8B, mitochondrial (Homo sapiens, UniProt Q96D53); experiment: Inhibition of ADCK4 (unknown origin)
[4] = target: RAC-alpha serine/threonine-protein kinase (Homo sapiens, UniProt P31749); experiment: Inhibition of AKT1 (unknown origin)
[5] = target: RAC-gamma serine/threonine-protein kinase (Homo sapiens, UniProt Q9Y243); experiment: Inhibition of AKT3 (unknown origin)
[6] = target: Ankyrin repeat and protein kinase domain-containing protein 1 (Homo sapiens, UniProt Q8NFD2); experiment: Inhibition of ANKK1 (unknown origin)
[7] = target: Tyrosine-protein kinase Blk (Homo sapiens, UniProt P51451); experiment: Inhibition of BLK (unknown origin)
Chain of Tyrosine-protein kinase Blk (P51451 whole entry): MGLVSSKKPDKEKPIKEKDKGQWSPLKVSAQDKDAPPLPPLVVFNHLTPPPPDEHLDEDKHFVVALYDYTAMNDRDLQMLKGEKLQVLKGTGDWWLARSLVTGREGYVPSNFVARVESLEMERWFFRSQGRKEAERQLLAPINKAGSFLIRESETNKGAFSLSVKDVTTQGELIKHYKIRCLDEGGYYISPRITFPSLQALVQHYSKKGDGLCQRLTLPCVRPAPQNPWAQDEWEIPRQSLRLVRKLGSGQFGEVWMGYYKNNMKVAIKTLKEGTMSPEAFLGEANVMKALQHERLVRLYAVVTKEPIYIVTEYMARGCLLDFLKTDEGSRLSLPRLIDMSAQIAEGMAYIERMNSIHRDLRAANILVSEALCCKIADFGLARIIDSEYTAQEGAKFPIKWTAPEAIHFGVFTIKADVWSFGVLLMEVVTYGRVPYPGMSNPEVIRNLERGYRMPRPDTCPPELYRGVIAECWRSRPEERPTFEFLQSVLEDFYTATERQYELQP

[8] = target: Serine/threonine-protein kinase B-raf (Homo sapiens, UniProt P15056); experiment: Inhibition of BRAF (unknown origin)
Chain of Serine/threonine-protein kinase B-raf (P15056 whole entry): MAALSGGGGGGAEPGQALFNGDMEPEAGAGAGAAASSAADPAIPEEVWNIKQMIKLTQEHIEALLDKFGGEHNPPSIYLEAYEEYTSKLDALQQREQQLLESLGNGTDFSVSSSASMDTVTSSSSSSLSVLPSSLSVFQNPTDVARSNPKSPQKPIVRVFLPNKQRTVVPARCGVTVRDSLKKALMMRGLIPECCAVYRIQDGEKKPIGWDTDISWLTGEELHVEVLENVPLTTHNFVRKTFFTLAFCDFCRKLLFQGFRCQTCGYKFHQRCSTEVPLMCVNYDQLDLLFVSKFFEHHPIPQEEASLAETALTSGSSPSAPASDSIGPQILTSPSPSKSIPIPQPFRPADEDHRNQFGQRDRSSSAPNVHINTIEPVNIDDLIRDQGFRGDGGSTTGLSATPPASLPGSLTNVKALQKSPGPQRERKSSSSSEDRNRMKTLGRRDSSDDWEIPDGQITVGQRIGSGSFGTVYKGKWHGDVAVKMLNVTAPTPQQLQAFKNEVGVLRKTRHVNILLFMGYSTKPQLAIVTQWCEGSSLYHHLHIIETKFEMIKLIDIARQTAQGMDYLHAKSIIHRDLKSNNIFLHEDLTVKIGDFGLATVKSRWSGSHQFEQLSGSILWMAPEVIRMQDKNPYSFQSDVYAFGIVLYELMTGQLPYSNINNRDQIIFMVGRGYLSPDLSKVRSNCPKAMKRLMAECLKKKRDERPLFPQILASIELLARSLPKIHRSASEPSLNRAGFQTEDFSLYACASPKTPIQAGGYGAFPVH

CDK6/cyclin D3 = CDK6/cyclin D3 (Homo sapiens, UniProt Q00534); experiment: Inhibition of CDK6/Cyclin D3 (unknown origin); type: protein-complex assay
[9] = target: Dual specificity protein kinase TTK (Homo sapiens, UniProt P33981); experiment: Inhibition of TTK (unknown origin)
Focal adhesion kinase 1 = Focal adhesion kinase 1 (Homo sapiens, UniProt Q05397); experiment: Inhibition of FAK (unknown origin)
[10] = target: Hepatocyte growth factor receptor (Homo sapiens, UniProt P08581); experiment: Inhibition of MET (unknown origin)
Chain of Hepatocyte growth factor receptor (P08581 whole entry): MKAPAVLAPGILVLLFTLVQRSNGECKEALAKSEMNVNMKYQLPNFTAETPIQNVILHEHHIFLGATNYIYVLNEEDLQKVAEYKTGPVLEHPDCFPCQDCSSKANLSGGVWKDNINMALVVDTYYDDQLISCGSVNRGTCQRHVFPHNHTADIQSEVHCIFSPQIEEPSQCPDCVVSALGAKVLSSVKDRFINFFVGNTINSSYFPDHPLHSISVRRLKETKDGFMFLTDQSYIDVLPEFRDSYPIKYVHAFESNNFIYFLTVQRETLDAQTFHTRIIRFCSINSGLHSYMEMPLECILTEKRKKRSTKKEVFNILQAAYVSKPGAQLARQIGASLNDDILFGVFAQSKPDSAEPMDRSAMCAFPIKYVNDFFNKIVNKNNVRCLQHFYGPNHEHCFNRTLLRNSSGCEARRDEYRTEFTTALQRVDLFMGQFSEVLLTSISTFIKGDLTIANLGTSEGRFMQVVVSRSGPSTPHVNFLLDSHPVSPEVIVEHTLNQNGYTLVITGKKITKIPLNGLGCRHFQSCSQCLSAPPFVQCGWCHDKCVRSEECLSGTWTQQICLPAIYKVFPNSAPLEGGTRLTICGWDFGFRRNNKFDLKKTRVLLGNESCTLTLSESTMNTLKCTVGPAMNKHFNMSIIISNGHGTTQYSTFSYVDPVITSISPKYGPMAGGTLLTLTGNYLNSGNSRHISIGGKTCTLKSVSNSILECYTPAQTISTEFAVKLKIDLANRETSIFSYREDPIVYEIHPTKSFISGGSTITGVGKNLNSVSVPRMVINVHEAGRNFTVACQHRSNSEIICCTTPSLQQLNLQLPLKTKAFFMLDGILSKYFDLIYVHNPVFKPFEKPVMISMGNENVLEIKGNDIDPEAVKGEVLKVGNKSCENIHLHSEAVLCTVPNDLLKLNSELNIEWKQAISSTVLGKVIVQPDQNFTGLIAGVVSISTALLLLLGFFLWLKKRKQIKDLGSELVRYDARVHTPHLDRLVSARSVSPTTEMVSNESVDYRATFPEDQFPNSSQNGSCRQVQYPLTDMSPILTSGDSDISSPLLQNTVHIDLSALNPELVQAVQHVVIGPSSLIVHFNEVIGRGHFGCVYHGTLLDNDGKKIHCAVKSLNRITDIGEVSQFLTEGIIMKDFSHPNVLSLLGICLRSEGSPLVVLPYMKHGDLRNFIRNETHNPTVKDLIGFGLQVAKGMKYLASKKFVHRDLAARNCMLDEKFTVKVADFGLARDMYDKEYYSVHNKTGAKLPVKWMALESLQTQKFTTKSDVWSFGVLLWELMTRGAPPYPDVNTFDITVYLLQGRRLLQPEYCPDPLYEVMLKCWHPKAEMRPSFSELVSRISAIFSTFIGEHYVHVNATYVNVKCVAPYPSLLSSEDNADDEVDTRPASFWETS

[11] = target: Serine/threonine-protein kinase 4 (Homo sapiens, UniProt Q13043); experiment: Inhibition of MST1 (unknown origin)
Chain of Serine/threonine-protein kinase 4 (Q13043 whole entry): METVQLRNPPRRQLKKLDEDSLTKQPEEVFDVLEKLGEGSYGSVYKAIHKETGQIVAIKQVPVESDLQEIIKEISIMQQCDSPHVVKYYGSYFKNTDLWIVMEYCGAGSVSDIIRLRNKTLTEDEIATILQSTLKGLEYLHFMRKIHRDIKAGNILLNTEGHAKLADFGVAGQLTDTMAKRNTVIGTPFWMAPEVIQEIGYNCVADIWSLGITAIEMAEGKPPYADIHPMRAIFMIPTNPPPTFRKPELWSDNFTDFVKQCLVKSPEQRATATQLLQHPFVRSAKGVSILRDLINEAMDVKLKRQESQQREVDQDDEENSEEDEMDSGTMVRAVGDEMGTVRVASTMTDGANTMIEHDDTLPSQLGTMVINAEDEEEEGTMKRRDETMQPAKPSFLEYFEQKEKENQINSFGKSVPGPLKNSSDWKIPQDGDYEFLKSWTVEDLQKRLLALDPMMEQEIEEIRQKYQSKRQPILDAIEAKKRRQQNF

[12] = target: Serine/threonine-protein kinase 38 (Homo sapiens, UniProt Q15208); experiment: Inhibition of NDR1 (unknown origin)
Chain of Serine/threonine-protein kinase 38 (Q15208 whole entry, canonical isoform): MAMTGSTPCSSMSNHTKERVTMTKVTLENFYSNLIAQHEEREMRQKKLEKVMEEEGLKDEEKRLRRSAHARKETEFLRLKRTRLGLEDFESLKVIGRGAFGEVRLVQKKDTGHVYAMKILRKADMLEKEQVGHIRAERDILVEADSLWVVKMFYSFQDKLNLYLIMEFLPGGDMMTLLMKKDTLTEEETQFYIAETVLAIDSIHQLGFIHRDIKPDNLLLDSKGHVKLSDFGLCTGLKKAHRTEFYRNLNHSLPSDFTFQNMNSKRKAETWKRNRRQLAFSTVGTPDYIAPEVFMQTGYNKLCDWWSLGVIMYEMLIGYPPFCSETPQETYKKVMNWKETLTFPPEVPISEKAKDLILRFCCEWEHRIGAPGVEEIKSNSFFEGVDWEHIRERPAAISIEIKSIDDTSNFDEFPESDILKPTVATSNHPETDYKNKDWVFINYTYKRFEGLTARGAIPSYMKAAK

[13] = target: Phosphatidylinositol 4,5-bisphosphate 3-kinase catalytic subunit alpha isoform (Homo sapiens, UniProt P42336); experiment: Inhibition of PIK3CA (unknown origin)
Tubulin (Homo sapiens) [14] = target: T1, Tubulin (Homo sapiens) (UniProt P68371+Q9H4B7+P0DPH7+P68366+Q13509+Q71U36+P04350+Q3ZCM7+P07437+P68363+Q9BQE3+Q6PEY2+Q13885+Q9BVA1+Q9BUF5); experiment: Inhibition of tubulin polymerization in human PC-3 cells assessed as increase in nuclear disruption incubated for 48 hrs by immunofluorescence assay; type: cell-based; details: dose 0.1-12.5 µM
Tubulin (Homo sapiens) [15] = target: T1, Tubulin (Homo sapiens); experiment: Inhibition of tubulin polymerization in human PC-3 cells assessed as nucleus disappearance at 2.5 to 12.5 uM incubated for 48 hrs by immunofluorescence assay; type: cell-based; details: dose 2.5-12.5 µM
PC-3 [16] = experiment: Cytotoxicity against human PC-3 cells assessed as inhibition of cell viability incubated for 48 hrs by MTT assay; type: functional, cell-based; details: PC-3, 48 h
DU-145 = experiment: Cytotoxicity against human DU-145 cells assessed as inhibition of cell viability incubated for 48 hrs by MTT assay; type: functional, cell-based
PC-3M = experiment: Cytotoxicity against human PC-3M cells assessed as inhibition of cell viability incubated for 48 hrs by MTT assay; type: functional, cell-based
PC-3M-1E8 = experiment: Cytotoxicity against human PC-3M-1E8 cells assessed as inhibition of cell viability incubated for 48 hrs by MTT assay; type: functional, cell-based
PC-3 [17] = experiment: Induction of cell cycle arrest in human PC-3 cells assessed as G0/G1 phase cells at 0.1 uM by flow cytometry analysis (reference value: 94.76%); type: functional
PC-3 [18] = experiment: Induction of cell cycle arrest in human PC-3 cells assessed as accumulation of cells at G2/M phase at 0.1 uM by flow cytometry analysis (reference value: 3.24%); type: functional
PC-3 [19] = experiment: Induction of cell cycle arrest in human PC-3 cells assessed as G0/G1 phase cells at 0.5 uM by flow cytometry analysis (reference value: 94.76%); type: functional
PC-3 [20] = experiment: Induction of cell cycle arrest in human PC-3 cells assessed as accumulation of cells at G2/M phase at 0.5 uM by flow cytometry analysis (reference value: 3.24%); type: functional
PC-3 [21] = experiment: Induction of cell cycle arrest in human PC-3 cells assessed as G0/G1 phase cells at 2.5 uM by flow cytometry analysis (reference value: 94.76%); type: functional
PC-3 [22] = experiment: Induction of cell cycle arrest in human PC-3 cells assessed as S phase cells at 2.5 uM by flow cytometry analysis (reference value: 2%); type: functional
PC-3 [23] = experiment: Induction of cell cycle arrest in human PC-3 cells assessed as accumulation of cells at G2/M phase at 12.5 uM by flow cytometry analysis (reference value: 3.24%); type: functional
PC-3 [24] = experiment: Induction of cell cycle arrest in human PC-3 cells assessed as S phase cells at 12.5 uM by flow cytometry analysis (reference value: 2%); type: functional
PC-3 [25] = experiment: Induction of cell cycle arrest in human PC-3 cells assessed as decrease in cyclin-B1 expression at 0.5 to 12.5 uM incubated for 48 hrs by Western blotting analysis; type: functional, cell-based; details: dose 0.5-12.5 µM
PC-3 [26] = experiment: Induction of apoptosis in human PC-3 cells assessed as early apoptotic cells at 0.1 uM by Annexin-V FITC staining based flow cytometry analysis (reference value: 1.51%); type: functional
PC-3 [27] = experiment: Induction of apoptosis in human PC-3 cells assessed as late apoptotic cells at 0.5 uM by Annexin-V FITC staining based flow cytometry analysis (reference value: 1.67%); type: functional
PC-3 [28] = experiment: Induction of apoptosis in human PC-3 cells assessed as necrotic cells at 0.5 uM by Annexin-V FITC staining based flow cytometry analysis (reference value: 0.059%); type: functional
PC-3 [29] = experiment: Induction of apoptosis in human PC-3 cells assessed as viable cells at 12.5 uM by Annexin-V FITC staining based flow cytometry analysis (reference value: 96.8%); type: functional; details: read-out: Activity
PC-3 [30] = experiment: Antitumor activity against human PC-3 cells xenografted in BALB/c nude mouse assessed as reduction in tumor weight at 5 to 10 mg/kg, ip administered every 4 days for 20 days; type: functional, organism-based; details: dose 5-10 mg/kg, time 20.0 day
[31] = Toxicity in BALB/c mouse xenografted with human PC-3 cells assessed as change in heart morphology at 5 to 10 mg/kg, ip administered every 4 days for 20 days by H and E staining based inverted microscopic assay; type: organism-based; details: in vivo, 480 h, dose 5-10 mg/kg, time 20 day
[32] = Toxicity in BALB/c mouse xenografted with human PC-3 cells assessed as change in liver morphology at 5 to 10 mg/kg, ip administered every 4 days for 20 days by H and E staining based inverted microscopic assay; type: organism-based; details: in vivo, 480 h, dose 5-10 mg/kg, time 20 day
[33] = Half life in Sprague-Dawley rat at 1.5 mg/kg, po measured upto 24 hrs by LC-MS/MS analysis; type: ADME, organism-based; details: in vivo
[34] = Tmax in Sprague-Dawley rat at 1.5 mg/kg, po measured upto 24 hrs by LC-MS/MS analysis; type: ADME, organism-based; details: in vivo
[35] = AUC in Sprague-Dawley rat at 1.5 mg/kg, po measured upto 24 hrs by LC-MS/MS analysis; type: ADME, organism-based; design: dose 1.5 mg/kg, time < 24 hrs, route po; details: in vivo

- IC50 [1]: > 10 µM
- IC50 [2]: > 10 µM
- IC50 [3]: > 10 µM
- IC50 [4]: > 10 µM
- IC50 [5]: > 10 µM
- IC50 [6]: > 10 µM
- IC50 [7]: > 10 µM
- IC50 [8]: > 10 µM
- IC50 (CDK6/cyclin D3): > 10 µM
- IC50 [9]: > 10 µM
- IC50 (Focal adhesion kinase 1): > 10 µM
- IC50 [10]: > 10 µM
- IC50 [11]: > 10 µM
- IC50 [12]: > 10 µM
- IC50 [13]: > 10 µM
- inhibition (Tubulin (Homo sapiens) [14]): Dose-Dependent Effect
- inhibition (Tubulin (Homo sapiens) [15]): Active
- half-life [33]: 13.8 h
- Tmax [34]: 0.5 h
- AUC at 24 h [35]: 4300 ng·h/mL
Structure (SMILES): COc1ccc(/C=C\c2cc(OC)c(OC)c(OC)c2)cc1NC(=O)CCC(=O)N[C@@H](CCCNC(=N)N)C(=O)O
- IC50 (PC-3 [16]): 0.02 µM
- Activity (DU-145): Active
- Activity (PC-3M): Active
- Activity (PC-3M-1E8): Active
- Activity (PC-3 [17]): 93.57%
- Activity (PC-3 [18]): 4.48%
- Activity (PC-3 [19]): 85.03%
- Activity (PC-3 [20]): 8.96%
- Activity (PC-3 [21]): 84.75%
- Activity (PC-3 [22]): 3.67%
- Activity (PC-3 [23]): 14.02%
- Activity (PC-3 [24]): 34.85%
- Activity (PC-3 [25]): Active
- Activity (PC-3 [26]): 1.84%
- Activity (PC-3 [27]): 5.32%
- Activity (PC-3 [28]): 0.12%
- viability at 12.5 µM (PC-3 [29]): 89.4%
- Activity (PC-3 [30]): Active
- Activity [31]: Non-Toxic
- Activity [32]: Non-Toxic
